Measurements as given in ChEMBL document CHEMBL1134555 (J Med Chem, 2001).

target: Nitric oxide synthase 1 (Rattus norvegicus, UniProt P29476); assay: Inhibitory activity against recombinant rat nNOS.
Sequence (P29476 whole entry): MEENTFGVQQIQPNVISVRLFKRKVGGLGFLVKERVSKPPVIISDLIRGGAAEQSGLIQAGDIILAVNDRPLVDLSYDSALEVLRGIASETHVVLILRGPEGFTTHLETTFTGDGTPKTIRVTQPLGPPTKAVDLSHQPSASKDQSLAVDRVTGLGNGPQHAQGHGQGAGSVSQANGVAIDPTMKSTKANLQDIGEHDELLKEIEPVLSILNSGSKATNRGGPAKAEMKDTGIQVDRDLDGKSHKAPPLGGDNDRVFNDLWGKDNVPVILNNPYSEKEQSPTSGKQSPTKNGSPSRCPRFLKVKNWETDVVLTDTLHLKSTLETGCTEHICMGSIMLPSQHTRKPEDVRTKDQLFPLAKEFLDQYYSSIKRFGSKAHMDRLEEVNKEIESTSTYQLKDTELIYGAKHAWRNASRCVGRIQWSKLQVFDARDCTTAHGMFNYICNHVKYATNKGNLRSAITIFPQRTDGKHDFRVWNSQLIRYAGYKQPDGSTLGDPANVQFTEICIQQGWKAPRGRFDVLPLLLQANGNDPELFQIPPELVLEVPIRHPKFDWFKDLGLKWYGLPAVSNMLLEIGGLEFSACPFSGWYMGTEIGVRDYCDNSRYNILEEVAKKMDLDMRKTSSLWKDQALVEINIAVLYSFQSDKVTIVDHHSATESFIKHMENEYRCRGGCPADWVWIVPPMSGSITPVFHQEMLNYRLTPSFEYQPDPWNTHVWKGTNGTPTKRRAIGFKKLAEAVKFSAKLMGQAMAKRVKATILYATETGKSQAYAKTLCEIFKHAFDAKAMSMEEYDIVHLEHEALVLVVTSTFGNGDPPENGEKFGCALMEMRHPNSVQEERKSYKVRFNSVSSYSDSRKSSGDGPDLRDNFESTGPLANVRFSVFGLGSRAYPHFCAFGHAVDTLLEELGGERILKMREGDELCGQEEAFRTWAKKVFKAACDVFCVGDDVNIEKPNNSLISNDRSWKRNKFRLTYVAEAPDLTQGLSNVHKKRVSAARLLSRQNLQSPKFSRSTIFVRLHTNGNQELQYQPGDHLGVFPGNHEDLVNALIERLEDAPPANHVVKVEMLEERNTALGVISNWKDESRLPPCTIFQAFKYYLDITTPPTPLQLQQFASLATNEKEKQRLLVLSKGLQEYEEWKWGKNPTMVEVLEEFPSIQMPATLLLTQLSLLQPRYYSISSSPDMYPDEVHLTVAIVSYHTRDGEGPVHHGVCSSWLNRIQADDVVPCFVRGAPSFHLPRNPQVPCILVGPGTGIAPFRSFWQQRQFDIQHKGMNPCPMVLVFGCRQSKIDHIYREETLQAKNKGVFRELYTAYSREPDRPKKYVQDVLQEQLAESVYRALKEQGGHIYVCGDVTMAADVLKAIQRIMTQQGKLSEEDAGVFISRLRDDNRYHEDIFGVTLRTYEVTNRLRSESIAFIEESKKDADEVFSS

Structure (SMILES)	Ki [µM]
N=C(NCCC[C@H](N)C(=O)NCCN)N[N+](=O)[O-]	0.54
N=C(NCCC[C@H](N)C(=O)NCCCCN)N[N+](=O)[O-]	0.35
N=C(NCCC[C@H](N)C(=O)NCCCN)N[N+](=O)[O-]	0.46
